Patent publication US20060045953A1 (priority 2004, published 2006)

biological target: T1, hT1R1/hT1R3 umami receptor (Homo sapiens, UniProt Q7RTX0+Q7RTX1); experiment: In vitro hT1R1/hT1R3 umami taste receptor activation assay (FLIPR, dose response); assay type: cell-based; settings: Table D, Umami Acrylamides; read-out: Umami EC50
T1 construct: expressed in transfected cells; host or cells: HEK293 derivative stably expressing Gα15, clone I-17, expression induced with mifepristone
T1 sequence (Q7RTX1 21-841): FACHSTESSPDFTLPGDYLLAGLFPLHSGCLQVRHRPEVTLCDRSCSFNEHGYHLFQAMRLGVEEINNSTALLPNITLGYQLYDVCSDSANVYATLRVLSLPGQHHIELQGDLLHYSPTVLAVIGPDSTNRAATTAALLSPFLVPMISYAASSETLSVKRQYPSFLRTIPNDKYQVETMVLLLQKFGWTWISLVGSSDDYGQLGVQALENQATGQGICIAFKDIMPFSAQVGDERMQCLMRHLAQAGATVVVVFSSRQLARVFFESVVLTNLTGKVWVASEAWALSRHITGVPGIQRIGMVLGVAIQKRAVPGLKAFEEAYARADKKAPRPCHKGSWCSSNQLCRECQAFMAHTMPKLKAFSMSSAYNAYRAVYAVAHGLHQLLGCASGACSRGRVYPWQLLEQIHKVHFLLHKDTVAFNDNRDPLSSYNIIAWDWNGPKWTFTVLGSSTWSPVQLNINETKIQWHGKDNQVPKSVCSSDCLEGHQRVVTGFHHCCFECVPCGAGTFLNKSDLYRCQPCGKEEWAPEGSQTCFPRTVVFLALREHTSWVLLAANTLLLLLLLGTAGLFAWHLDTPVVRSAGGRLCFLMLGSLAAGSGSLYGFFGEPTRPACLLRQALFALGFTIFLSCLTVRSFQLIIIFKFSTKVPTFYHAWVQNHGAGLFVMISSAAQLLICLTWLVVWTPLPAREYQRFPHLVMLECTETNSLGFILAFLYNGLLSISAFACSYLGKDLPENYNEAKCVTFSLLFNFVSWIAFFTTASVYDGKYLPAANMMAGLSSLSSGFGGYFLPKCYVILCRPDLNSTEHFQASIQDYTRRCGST
T1 sequence (Q7RTX0 21-852): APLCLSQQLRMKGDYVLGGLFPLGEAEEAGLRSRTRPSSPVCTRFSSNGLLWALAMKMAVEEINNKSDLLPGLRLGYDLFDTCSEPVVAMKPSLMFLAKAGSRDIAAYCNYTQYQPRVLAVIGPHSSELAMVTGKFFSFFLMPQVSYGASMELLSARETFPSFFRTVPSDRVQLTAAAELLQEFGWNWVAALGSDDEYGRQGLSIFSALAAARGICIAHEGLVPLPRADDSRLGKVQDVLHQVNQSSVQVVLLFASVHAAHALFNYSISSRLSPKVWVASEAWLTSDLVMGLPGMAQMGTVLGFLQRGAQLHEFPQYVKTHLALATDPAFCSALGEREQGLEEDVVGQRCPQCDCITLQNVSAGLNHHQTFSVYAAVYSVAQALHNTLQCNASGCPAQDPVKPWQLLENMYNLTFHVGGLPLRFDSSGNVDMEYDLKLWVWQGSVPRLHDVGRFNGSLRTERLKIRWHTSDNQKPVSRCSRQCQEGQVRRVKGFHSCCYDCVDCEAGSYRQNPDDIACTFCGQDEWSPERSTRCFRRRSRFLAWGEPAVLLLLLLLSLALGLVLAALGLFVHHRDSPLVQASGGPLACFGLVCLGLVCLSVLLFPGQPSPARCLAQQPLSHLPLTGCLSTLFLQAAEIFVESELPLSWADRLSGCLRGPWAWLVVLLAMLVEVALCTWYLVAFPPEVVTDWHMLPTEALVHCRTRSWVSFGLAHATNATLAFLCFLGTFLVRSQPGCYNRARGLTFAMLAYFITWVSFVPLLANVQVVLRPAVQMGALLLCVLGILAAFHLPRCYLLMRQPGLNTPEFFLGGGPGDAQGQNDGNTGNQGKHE

| EC50 [nM] | Structure (SMILES) |
| --- | --- |
| 1090 | COC(=O)[C@@H](CC(C)C)NC(=O)/C=C/c1ccsc1 [Example D10, (R,E)-methyl 4-methyl-2-(3-(thiophen-3-yl)acrylamido)pentanoate] |
| 1170 | COC(=O)[C@@H](CC(C)C)NC(=O)/C=C/c1ccccc1 [Example D11, (R)-methyl 2-cinnamamido-4-methylpentanoate] |
| 1280 | CC(C)/C=C/C(=O)NC1CCCCC1C (stereo not drawn) [Example D12, (E)-4-methyl-N-(2-methylcyclohexyl)pent-2-enamide] |
| 1310 | CCOc1ccc(/C=C/C(=O)NC(C)CC)cc1 (stereo not drawn) [Example D13, (E)-N-sec-butyl-3-(4-ethoxyphenyl)acrylamide] |
| 1430 | CCC(COC)NC(=O)/C=C/c1ccc(OC)cc1 (stereo not drawn) [Example D14, (E)-N-(1-methoxybutan-2-yl)-3-(4-methoxyphenyl)acrylamide] |
| 1540 | CCCC(CCC)NC(=O)/C=C/c1ccsc1 [Example D15, (E)-N-(heptan-4-yl)-3-(thiophen-3-yl)acrylamide] |
| 1560 | COc1ccc(/C=C/C(=O)NC(C)CCc2ccccc2)cc1OC (stereo not drawn) [Example D16, (E)-3-(3,4-dimethoxyphenyl)-N-(4-phenylbutan-2-yl)acrylamide] |

same assay, conditions: opposite enantiomers compared; read-out: AFFINITY FOR T1R1/T1R3 SAVORY RECEPTOR EC50 UM

| EC50 [nM] | Structure (SMILES) |
| --- | --- |
| 80 | COc1ccc(C(=O)N[C@H]2CCc3ccccc32)cc1C [drawing 26, (S)-N-(2,3-dihydro-1H-inden-1-yl)-4-methoxy-3-methylbeuzamide] |
| 850 | CCOc1ccc(C(=O)N[C@H]2CCc3ccccc32)cc1C [drawing 28, (S)-N-(2,3-dihydro-1H-inden-1-yl)-4-ethoxy-3-methylbenzamide] |
| 90 | COc1cccc(C(=O)N[C@@H]2CCCc3ccccc32)c1N [drawing 29, (R)-2-amino-3-methoxy-N-(1,2,3,4-tetrahydronaphthalen-1-yl)benzamide] |

biological target: T2, hT1R2/hT1R3 sweet receptor (Homo sapiens, UniProt Q7RTX0+Q8TE23); experiment: In vitro hT1R2/hT1R3 sweet taste receptor activation assay (FLIPR, dose response); assay type: cell-based; settings: read-out: EC50 for activation of a hT1R2/hT1R3 sweet receptor expressed in an HEK293 cell line
T2 construct: expressed in transfected cells; host or cells: HEK293 derivative stably expressing Gα15, clone S-9
T2 sequence (Q8TE23 20-839): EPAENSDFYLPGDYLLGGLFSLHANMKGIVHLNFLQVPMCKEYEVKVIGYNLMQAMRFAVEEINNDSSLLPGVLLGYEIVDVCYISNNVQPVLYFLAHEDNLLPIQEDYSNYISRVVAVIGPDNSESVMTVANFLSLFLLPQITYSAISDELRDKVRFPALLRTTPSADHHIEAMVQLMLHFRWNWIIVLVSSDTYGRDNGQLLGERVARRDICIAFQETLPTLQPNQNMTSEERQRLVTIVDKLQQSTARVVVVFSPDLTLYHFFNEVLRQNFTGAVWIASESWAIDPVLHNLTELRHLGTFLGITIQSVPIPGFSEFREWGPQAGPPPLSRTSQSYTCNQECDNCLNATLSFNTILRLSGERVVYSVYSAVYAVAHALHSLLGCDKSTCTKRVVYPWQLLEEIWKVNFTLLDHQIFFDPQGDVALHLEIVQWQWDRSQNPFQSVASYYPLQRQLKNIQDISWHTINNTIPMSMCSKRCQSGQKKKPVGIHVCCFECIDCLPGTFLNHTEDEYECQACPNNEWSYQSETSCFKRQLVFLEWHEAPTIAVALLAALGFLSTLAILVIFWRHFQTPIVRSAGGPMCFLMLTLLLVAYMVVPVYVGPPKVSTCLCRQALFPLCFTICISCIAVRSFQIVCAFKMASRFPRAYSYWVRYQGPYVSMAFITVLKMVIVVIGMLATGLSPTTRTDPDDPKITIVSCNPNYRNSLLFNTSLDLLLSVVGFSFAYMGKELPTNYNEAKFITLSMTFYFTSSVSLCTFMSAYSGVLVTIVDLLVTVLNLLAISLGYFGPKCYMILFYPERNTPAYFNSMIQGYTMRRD
T2 sequence (Q7RTX0 21-852): T1 sequence (Q7RTX0 21-852)
Protocol: Activity was determined using an automated fluorometric imaging assay on a FLIPR instrument (Fluorometric Intensity Plate Reader, Molecular Devices, Sunnyvale, Calif.) (designated FLIPR assay). […] S-9 cells were grown for 24 hours at 37° C. S-9 cells were then loaded with the calcium dye Fluo-3AM (Molecular Probes, Eugene, Oreg.), 4 µM in a phosphate buffered saline (D-PBS) (Invitrogen, Carlsbad, Calif.), for 1 hour at room temperature. After replacement with 25 µl D-PBS, stimulation was performed in the FLIPR instrument and at room temperature by the addition of 25 µl D-PBS supplemented with different stimuli at concentrations corresponding to twice the desired final level.
For dose-responses analysis, stimuli were presented in duplicates at 10 different concentrations ranging from 60 nM to 30 µM. Activities were normalized to the response obtained with 400 mM D-fructose, a concentration that elicits maximum receptor response. EC50s were determined using a non-linear regression algorithm (using a Senomyx, Inc. software), where the Hill slope, bottom asymptotes and top asymptotes were allow to vary.

| EC50 [nM] | Structure (SMILES) |
| --- | --- |
| 600 | Cc1c(F)c(F)c(C(=O)N[C@@H](C)C(C)C)c(F)c1F [Example 163, (S)-2,3,5,6-tetrafluoro-4-methyl-N-(3-methylbutan-2-yl)benzamide] |
| 1880 | Cc1cccc(C)c1C(=O)NC1CCCCC1C (stereo not drawn) [Example 168, 2,6-dimethyl-N-(2-methylcyclohexyl)benzamide] |
| 2100 | COc1cc(C)c(C(=O)NC2CCCCC2C)c(C)c1 (stereo not drawn) [Example 169, 4-methoxy-2,6-dimethyl-N-(2-methylcyclohexyl)benzamide] |
| 6600 | O=C(N[C@@H]1CCCc2ccccc21)c1ccoc1 [Example 170, (R)-N-(1,2,3,4-tetrahydronaphthalen-1-yl)furan-3-carboxamide] |
| 890 | Cc1cc(Cl)ccc1NC(=O)N1Cc2ccccc2C1 [Example 172, N-(4-chloro-2-methylphenyl)isoindoline-2-carboxamide] |
| 4500 | COc1ccc(NC(=O)N2Cc3ccccc3C2)c(C)c1 [Example 173, N-(4-methoxy-2-methylphenyl)isoindoline-2-carboxamide] |
| 1480 | Cc1ccc2c(c1)C(NC(=O)c1cccc(Cl)c1O)CCC2 (stereo not drawn) [Example 178, 3-Chloro-2-hydroxy-N-(7-methyl-1,2,3,4-tetrahydronaphthalen-1-yl)benzamide] |
| 380 | CC1CCc2ccccc2C1NC(=O)c1cccc(Cl)c1O (stereo not drawn) [Example 179, 3-Chloro-2-hydroxy-N-(2-methyl-1,2,3,4-tetrahydronaphthalen-1-yl)benzamide] |
| 4500 | CCOc1cccc2c1CCCC2NC(=O)c1conc1C (stereo not drawn) [Example 181] |
| 2800 | Cc1cccc2c1CCC[C@H]2NC(=O)c1conc1C [Example 182, (R)-3-Methyl-N-(5-methyl-1,2,3,4-tetrahydronaphthalen-1-yl)isoxazole-4-carboxamide] |
| 260 | COc1ccc2c(c1)[C@H](NC(=O)c1cccc(Cl)c1O)CCC2 [Example 184, (R)-3-Chloro-2-hydroxy-N-(7-methoxy-1,2,3,4-tetrahydronaphthalen-1-yl)benzamide] |
| 1030 | O=C(N[C@@H]1CCOc2ccccc21)c1cccc(Cl)c1O [Example 185, (R)-3-Chloro-N-(3,4-dihydro-2H-chromen-4-yl)-2-hydroxybenzamide] |
| 500 | COc1cccc2c1CCC(C)C2NC(=O)c1cccc(Cl)c1O (stereo not drawn) [Example 186, 3-Chloro-2-hydroxy-N-(5-methoxy-2-methyl-1,2,3,4-tetrahydronaphthalen-1-yl)benzamide] |
| 400 | CCc1nocc1C(=O)N[C@@H]1CCCc2c(OC)cccc21 [Example 187, (R)-3-Ethyl-N-(5-methoxy-1,2,3,4-tetrahydronaphthalen-1-yl)isoxazole-4-carboxamide] |
| 240 | CCCc1nocc1C(=O)N[C@@H]1CCCc2c(OC)cccc21 [Example 188, (R)-3-Propyl-N-(5-methoxy-1,2,3,4-tetrahydronaphthalen-1-yl)isoxazole-4-carboxamide] |
| 360 | CCCCc1nocc1C(=O)N[C@@H]1CCCc2c(OC)cccc21 [Example 189, (R)-3-Butyl-N-(5-methoxy-1,2,3,4-tetrahydronaphthalen-1-yl)isoxazole-4-carboxamide] |
| 950 | COc1cccc2c1CCC[C@H]2NC(=O)c1conc1C [Example 190, (R)-3-methyl-N-(5-methoxy-1,2,3,4-tetrahydronaphthalen-1-yl)isoxazole-4-carboxamide] |
